Data published in ChEMBL document CHEMBL3046352, “Synthesis, anti-HSV-1, and cytotoxic activities of some new pyrazole- and isoxazole-based heterocycles” (Med Chem Res, 2011).
In brackets after ≈: the same amount, converted by molar mass. Activity calls are given as the source filed them. No cut-off for these calls is given here.

Columns and labels:
[1] = Cytotoxicity against Chlorocebus aethiops (African green monkey) Vero cells assessed as concentration required for 50% loss of monolayer around viral plaque after 66 hr; format: cell-based; conditions: chlorocebus sabaeus, read-out: Activity
[2] = system: Human alphaherpesvirus 1; assay: Antiviral activity against Human herpesvirus 1 infected Vero cells after 66 hr; format: functional
[3] = system: Human alphaherpesvirus 1; assay: Antiviral activity against Human herpesvirus 1 infected Vero cells assessed as reduction in viral plaque after 66 hr relative to control; format: functional; set-up: concentration or dose not given beside the values

| SMILES | CC50 at 66 h [1] | MAC [2] | Activity [3] |
| --- | --- | --- | --- |
| O=C(N/N=C/c1ccc(F)cc1)c1cc(-c2ccc(Cl)cc2)n(-c2ccccc2)n1 | 20 µg/mL (≈ 47.7 µM) | 0.1 mg/mL | 67% |
| Clc1ccc(-c2cc(-c3nnc(Nc4ccccc4)s3)nn2-c2ccccc2)cc1 | 30 µg/mL (≈ 69.8 µM) | – | inactive |
| O=C(N/N=C1/S/C(=C\c2ccc(F)cc2)C(=O)N1c1ccccc1)c1cc(-c2ccc(Cl)cc2)on1 | 20 µg/mL (≈ 38.5 µM) | – | inactive |
| O=C(NNC(=S)Nc1ccccc1)c1cc(-c2ccc(Cl)cc2)n(-c2ccccc2)n1 | 20 µg/mL (≈ 44.6 µM) | – | inactive |
| CC(=N/NC(=O)c1cc(-c2ccc(Cl)cc2)n(-c2ccccc2)n1)/C(Cl)=N\Nc1ccc(F)cc1 | 20 µg/mL (≈ 39.3 µM) | 0.1 mg/mL | 69% |
| O=C(N/N=C1/S/C(=C\c2ccc(F)cc2)C(=O)N1c1ccccc1)c1cc(-c2ccc(Cl)cc2)n(-c2ccccc2)n1 | 30 µg/mL (≈ 50.5 µM) | – | inactive |
| O=C(NNC(=S)Nc1ccccc1)c1cc(-c2ccc(Cl)cc2)on1 | 20 µg/mL (≈ 53.6 µM) | 0.1 mg/mL | 19% |
| O=C(N/N=C/c1ccc(F)cc1)c1cc(-c2ccc(Cl)cc2)on1 | 10 µg/mL (≈ 29.1 µM) | – | 56% |
| O=C(N/N=c1\scc(-c2ccc(Cl)cc2)n1-c1ccccc1)c1cc(-c2ccc(Cl)cc2)n(-c2ccccc2)n1 | 20 µg/mL (≈ 34.3 µM) | – | inactive |
| O=C(NN1C(=O)c2ccccc2C1=O)c1cc(-c2ccc(Cl)cc2)on1 | 10 µg/mL (≈ 27.2 µM) | 0.1 mg/mL | inactive |
| NNC(=O)c1cc(-c2ccc(Cl)cc2)on1 | 10 µg/mL (≈ 42.1 µM) | 0.1 mg/mL | 43% |
| NNC(=O)c1cc(-c2ccc(Cl)cc2)n(-c2ccccc2)n1 | 20 µg/mL (≈ 63.9 µM) | 0.1 mg/mL | 65% |
| C[C@@]1(CO)[C@H](O)CC[C@@]2(C)[C@H]1CC[C@H]1C[C@@H]3C[C@@]12CC[C@]3(O)CO [APHIDICOLIN] | 10 µg/mL (≈ 29.5 µM) | 0.005 mg/mL | 100% |
| CC1=NN(C(=O)c2cc(-c3ccc(Cl)cc3)n(-c3ccccc3)n2)C(=O)/C1=N/Nc1ccc(F)cc1 | 20 µg/mL (≈ 39.9 µM) | – | inactive |
| O=C(N/N=c1\scc(-c2ccc(Cl)cc2)n1-c1ccccc1)c1cc(-c2ccc(Cl)cc2)on1 | 20 µg/mL (≈ 39.4 µM) | – | inactive |
| Clc1ccc(-c2cc(-c3nnc(Nc4ccccc4)s3)no2)cc1 | 20 µg/mL (≈ 56.4 µM) | – | inactive |
| CC1=NN(C(=O)c2cc(-c3ccc(Cl)cc3)on2)C(=O)/C1=N/Nc1ccc(F)cc1 | 20 µg/mL (≈ 47 µM) | – | inactive |
| CC(=N/NC(=O)c1cc(-c2ccc(Cl)cc2)on1)/C(Cl)=N\Nc1ccc(F)cc1 | 20 µg/mL (≈ 46.1 µM) | 0.1 mg/mL | 51% |
